# In PubChem BioAssay (NCI):
#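 Cultured in 96-well plates, cells were exposed to test compound for 48 hours across five concentrations. The concentration for 50% growth inhibition is given as GI50. Definition used: TGI = concentration required for complete inhibition of growth.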
# Assays:
# Test in all cases: NCI anticancer screen, dose series, 48 h
# A498 renal = test system: A498 renal
# CCRF-CEM leukemia = test system: CCRF-CEM leukemia
# COLO 205 colon = test system: COLO 205 colon
# EKVX NSCLC = test system: EKVX NSCLC
# IGROV1 ovarian = test system: IGROV1 ovarian
# NCI-H226 lung = test system: NCI-H226 lung
# NCI-H23 lung = test system: NCI-H23 lung
# SN12C renal = test system: SN12C renal
# TK-10 renal = test system: TK-10 renal
# UACC-62 melanoma = test system: UACC-62 melanoma
Structure (SMILES),GI50 (A498 renal) [µM],TGI (A498 renal) [µM],GI50 (CCRF-CEM leukemia) [µM],GI50 (COLO 205 colon) [µM],TGI (COLO 205 colon) [µM],GI50 (EKVX NSCLC) [µM],TGI (EKVX NSCLC) [µM],GI50 (IGROV1 ovarian) [µM],TGI (IGROV1 ovarian) [µM],GI50 (NCI-H226 lung) [µM],TGI (NCI-H226 lung) [µM],GI50 (NCI-H23 lung) [µM],TGI (NCI-H23 lung) [µM],GI50 (SN12C renal) [µM],TGI (SN12C renal) [µM],GI50 (TK-10 renal) [µM],TGI (TK-10 renal) [µM],GI50 (UACC-62 melanoma) [µM],TGI (UACC-62 melanoma) [µM],TGI (CCRF-CEM leukemia) [µM]
COc1cc2c(=O)n(CCN)c3c4cc5c(cc4ccc3c2cc1OC)OCO5,1.24,2.64,0.182,0.352,2.11,1.47,3.51,0.467,2.07,1.43,3.59,0.683,2.51,0.723,2.32,1.62,3.28,0.332,1.96,–
CC(CCC(=O)O)C(=O)O (stereo not given),–,> 100,–,–,> 100,–,> 100,–,> 100,–,> 100,–,> 100,–,> 100,–,> 100,–,> 100,> 100
Nc1ccc(C(=O)CC(N)C(=O)O)cc1O (stereo not given),–,> 100,–,–,> 100,–,> 100,–,> 100,–,> 100,–,> 100,–,> 100,–,> 100,–,> 100,> 100
CCOc1cccc(/C=N/NC(=O)C(=O)Nc2cccc(C(F)(F)F)c2)c1O,8.85,76.2,0.322,2.43,> 100,–,–,1.3,25.8,3.96,50.1,4.57,> 100,2.66,> 100,4.3,> 100,1.06,4.51,7.41
CCCOc1ccc2nc(NC(=O)OC)[nH]c2c1,0.162,1.46,0.273,0.135,0.505,0.535,> 100,0.481,> 100,0.399,–,0.34,> 100,0.597,> 100,> 25.5,> 100,0.215,> 100,> 100
Cc1cccc(-n2c(=S)[nH]c3c(sc(=O)n3-c3ccccc3C)c2=O)c1,–,> 100,–,–,> 100,–,> 100,–,> 100,–,> 100,–,> 100,–,> 100,–,–,–,> 100,> 100
COc1ccc(Cn2cc3c(c2)-c2oncc2CC3)cc1,1.74,9.74,2.87,3.59,14.5,12.7,> 100,4.56,> 100,16,> 100,5.85,> 67.5,10.1,> 100,8.76,86.8,3.75,> 100,> 88.6
COc1ccc(-c2oc3c(OC)c(OC)c(OC)c(OC)c3c(=O)c2OC)cc1OC,–,> 100,–,–,> 100,–,> 100,–,> 100,–,> 100,–,> 100,–,> 100,–,> 100,–,> 100,> 100
CCN(CC)C(=S)Oc1cc2oc(=O)cc(C)c2cc1Cl,–,> 100,–,–,> 100,–,> 100,–,> 100,–,> 100,–,> 100,–,> 100,–,> 100,–,73.7,> 100
C=C1C(=O)O[C@H]2[C@H]1CC/C(COC(=O)c1cc3cc(Cl)ccc3[nH]1)=C\CC[C@@]1(C)O[C@@H]21,2.65,9.17,0.394,1.72,3.7,1.4,2.91,1.38,2.91,1.8,3.72,1.63,3.68,1.7,3.57,1.75,3.12,1.67,3.27,1.61
CCCCN(CCCC)c1c([N+](=O)[O-])c(=O)nc2ccccn12,–,48.2,–,–,> 100,–,94.1,–,> 100,–,> 100,–,> 100,–,> 100,–,85,–,> 100,> 100
C/C(=N\N(c1ccccc1)c1ccccc1)c1c(O)cc(C)oc1=O,–,> 100,–,–,–,–,> 100,–,–,–,> 100,–,> 100,–,> 100,–,> 100,–,> 100,> 100
COC1OC(CO)C(O)C1N (stereo not given),–,> 100,–,–,> 100,–,> 100,–,> 100,–,> 100,–,> 100,–,> 100,–,> 100,–,> 100,> 100
CCOP(=O)(OCC)OC(C#N)c1ccc(-c2ccccc2)cc1 (stereo not given),–,62.7,–,–,32.4,–,> 100,–,> 100,–,> 100,–,> 100,–,36.8,–,89.2,–,29.2,49.7
COc1ccc(/C=C\c2cc(OC)c(O[Si](C)(C)C(C)(C)C)c(OC)c2)cc1,–,81.1,–,–,> 100,–,> 100,–,> 100,–,> 100,–,> 100,–,> 100,–,–,–,> 100,49.8
OCCNc1ncnc2c1ncn2Cc1cccc(COc2cccc(OCc3cccc(Cn4cnc5c(NCCO)ncnc54)c3)c2)c1,14.9,28.9,11.3,13.5,32.2,14.3,29,12.9,37.4,15.5,33.3,–,–,17,34.5,14.7,29.9,17,33.8,33.1
CN(C)CC1CCC/C1=N\O (stereo not given),–,> 100,–,–,> 100,–,–,–,> 100,–,> 100,–,> 100,–,> 100,–,> 100,–,> 100,> 100
CC[C@]1(O)C(=O)OCc2c1cc1n(c2=O)Cc2cc3c(N)cccc3nc2-1,–,> 100,–,–,> 100,–,> 100,–,> 100,–,> 100,–,> 100,–,> 100,–,> 100,–,> 100,> 100

Structure (SMILES),GI50 (A498 renal) [µM],TGI (A498 renal) [µM],GI50 (CCRF-CEM leukemia) [µM],GI50 (COLO 205 colon) [µM],TGI (COLO 205 colon) [µM],GI50 (EKVX NSCLC) [µM],TGI (EKVX NSCLC) [µM],GI50 (IGROV1 ovarian) [µM],TGI (IGROV1 ovarian) [µM],GI50 (NCI-H226 lung) [µM],TGI (NCI-H226 lung) [µM],GI50 (NCI-H23 lung) [µM],TGI (NCI-H23 lung) [µM],GI50 (SN12C renal) [µM],TGI (SN12C renal) [µM],GI50 (TK-10 renal) [µM],TGI (TK-10 renal) [µM],GI50 (UACC-62 melanoma) [µM],TGI (UACC-62 melanoma) [µM],TGI (CCRF-CEM leukemia) [µM]
CC1C(=O)OCC2=CCN3CCC(OC(=O)C(C)C1(C)O)C23 (stereo not given),–,> 100,–,–,> 100,–,> 100,–,> 100,–,> 100,–,> 100,–,> 100,–,> 100,–,> 100,> 100
COc1ccc(-c2ccc(-c3ccc(C(=N)N)cn3)o2)cc1,12.8,26.3,3.2,1.82,3.68,–,–,5.29,19,12.8,29.5,11.6,25.5,8.01,22.5,10.7,22.7,10.3,22.9,13.7
Cn1c2c(c3ccc(Cl)c(Cl)c31)C(C#N)C1(CCNCC1)NC2=O (stereo not given),1.24,2.95,1.93,1.19,2.54,2.47,9.84,1.66,3.83,2.24,12.7,2.72,9.22,2.51,12.6,1.23,3.46,1.63,3.31,4.72
NCCCCNc1ccc2c(=O)[nH][nH]c(=O)c2c1,–,> 100,–,–,> 100,–,> 100,–,> 100,–,> 100,–,> 100,–,> 100,–,> 100,–,> 100,> 100
CCOC(=O)/C=C/C1=C(c2cccs2)c2ccccc2CC1,36.9,> 100,27.3,17,46.3,27.8,86.7,26.7,94.9,25.4,70.2,28.8,89.4,28.3,> 100,17.9,64.3,18.7,40.9,73.1
C/C=C/C=C/C=C/C=C/C(=O)O,–,> 100,–,–,> 100,–,> 100,–,> 100,–,> 100,–,> 100,–,> 100,–,–,–,> 100,> 100
CCOC(=O)/C=C1\CCCC12OCCO2,–,> 100,–,–,> 100,–,–,–,> 100,–,> 100,–,–,–,> 100,–,> 100,–,> 100,> 100
Nc1ccccc1C#C/C=C\C#Cc1ccccc1,15.3,31.1,0.804,14.9,29.3,15.3,41.1,–,–,11.8,31.3,14.8,35.9,13.4,29.7,–,–,13,27.7,29.9
Cc1ccc(-c2csc(NC(=O)CN3CCN(c4cc5c(cc4F)c(=O)c(C(=O)O)cn5C4CC4)CC3)n2)cc1,1.02,10.3,0.569,1.66,3.75,1.53,23.9,0.739,17,2.51,9.41,0.39,13.3,0.413,15.4,–,–,1.26,13.1,> 100
C[C@]12CCCC(=O)C1(O)C[C@H](C(=O)O)CC2 (stereo not given in full),–,> 100,–,–,> 100,–,–,–,> 100,–,> 100,–,> 100,–,> 100,–,> 100,–,> 100,> 100
CCOc1cc(/C=N\Nc2nnc(C)n2N)c(C)cc1N(CCCl)CCCl,0.212,2.41,0.655,0.375,1.89,–,–,1.96,> 100,1.54,14.7,0.8,9.49,1.07,27.3,1.97,51.4,0.525,15.3,32.5
Cc1ccc2nc(-c3ccc(N(C)C)c(Br)c3)cn2c1,> 100,> 100,6.52,> 100,> 100,> 100,> 100,–,–,> 100,> 100,> 100,> 100,> 100,> 100,> 100,> 100,> 100,> 100,> 100
CC1=C(C(=O)Nc2cccc(Cl)c2)C(c2ccccc2F)C(C(=O)Nc2cccc(Cl)c2)=C(C)N1,–,38.6,–,–,26.3,–,27.5,–,47.3,–,26,–,26.5,–,23,–,68.2,–,–,26.2
Cc1sc2nc3c4ccccc4c(NCCCN(C)C)nn3c(=O)c2c1C,4.49,20.2,6.13,1.43,2.79,15.7,35.8,5.3,24.6,5.26,23.1,8.45,23,5.14,21.7,13.6,28.9,–,–,17.2
CC(=O)OCC(OC(C)=O)C(OC(C)=O)C(OC(C)=O)C(=O)CNn1c(-c2ccccc2Cl)nc2ccccc2c1=O (stereo not given),–,> 100,–,–,> 100,–,> 100,–,–,–,> 100,–,> 100,–,> 100,–,–,–,> 100,> 100
O=C1C(c2ccccc2)=[N+]([O-])c2ccccc21,–,34,–,–,29.7,–,35.4,–,–,–,37.8,–,36.6,–,34.2,–,37.4,–,29.5,> 100
CCn1c2ccc(O)cc2c2c(C)c3c[n+](C)ccc3c(C)c21,3.71,59.4,5.7,3.03,17.3,10.9,> 100,–,–,0.896,27.6,1.44,25.8,0.152,3.03,24.3,> 100,2.05,22.8,> 100
